Source: patent US9957252B2, “Metalloenzyme inhibitor compounds as fungicides” (Dow AgroSciences LLC, priority 2014, dated 2018)
Where two headings read alike, the source gives them in different places.

Assays:
Format in all cases: in vivo, Mycosphaerella graminicola on wheat plants (variety Yuma)
[1] = tested on: standard laboratory SEPTTR isolate (SI SEPTTR); Mycosphaerella graminicola; Anamorph: Septoria tritici; assay: Leaf blotch of wheat fungicidal activity, Type A assay (technical grade in acetone/water with Triton X-100, booth sprayer), standard laboratory isolate; details: Zymoseptoria tritici, 24 h, 1 Day Protectant, wheat seedlings (Yuma), read-out: Disease control, SI SEPTTR Type A Assay (50 ppm) 1DP
Description: (§1) Evaluation of Fungicidal Activity: Leaf Blotch of Wheat (Mycosphaerella graminicola; Anamorph: Septoria tritici; Bayer code SEPTTR):
(§2) For Type A assays, technical grades of the experimental fungicides in Table 4 below were dissolved in acetone, and then mixed with nine volumes of water containing 110 ppm Triton X-100. The fungicide solutions were applied onto wheat seedlings using an automated booth sprayer. For Type B assays, emulsifiable concentrate (EC) formulations of technical grades of experimental fungicides in Table 4 below were prepared at 10% (w/v), and then mixed with 150 volumes of 0.1% Trycol 5941. The fungicide solutions were applied onto wheat seedlings using an automated track sprayer at 200 L/ha. All sprayed plants were allowed to air dry prior to further handling.
(§3) Wheat plants (variety Yuma) were grown from seed in a greenhouse in 50% mineral soil/50% soil-less Metro mix until the first leaf was fully emerged, with 7-10 seedlings per pot. Prior to or after application of experimental fungicides, plants were inoculated either with spores of a standard laboratory SEPTTR isolate (SI SEPTTR) or with spores from a SEPTTR field isolate collected from Wellsbourne, England in 2012 (FI SEPTTR). After inoculation, the plants were kept for 3 days at 20° C. in 100% relative humidity (one day in a dark dew chamber followed by two days in a lighted dew chamber). Plants were then transferred to a 20° C. greenhouse for disease development. When disease symptoms were fully expressed on untreated plants, infection levels on treated plants were assessed on a scale of 0 to 100 percent disease severity. Percent disease control was calculated using the ratio of disease severity on treated plants relative to untreated plants.

[2] = Leaf blotch of wheat fungicidal activity, Type B assay (10% EC formulation in 0.1% Trycol 5941, track sprayer 200 L/ha), field isolate; details: Zymoseptoria tritici, 72 h, field isolate (Wellsbourne, England 2012), wheat seedlings (Yuma)
Description: as §1, §2, §3

[3] = tested on: standard laboratory SEPTTR isolate (SI SEPTTR); Mycosphaerella graminicola; Anamorph: Septoria tritici; assay: Leaf blotch of wheat fungicidal activity, Type B assay (10% EC formulation in 0.1% Trycol 5941, track sprayer 200 L/ha), standard laboratory isolate; details: Zymoseptoria tritici, 72 h, wheat seedlings (Yuma)
Description: as §1, §2, §3

[4] = 3 Day Curative, read-out: Disease control, FI SEPTTR Type B Assay (100 g/ha) 3DC
[5] = 3 Day Protectant, read-out: Disease control, FI SEPTTR Type B Assay (100 g/ha) 3DP
[6] = 3 Day Curative, read-out: Disease control, SI SEPTTR Type B Assay (100 g/ha) 3DC
[7] = 3 Day Protectant, read-out: Disease control, SI SEPTTR Type B Assay (100 g/ha) 3DP

SMILES	pest or weed control at 50 ppm [1]	pest or weed control at 100 g/ha [2, 4]	pest or weed control at 100 g/ha [2, 5]	pest or weed control at 100 g/ha [3, 6]	pest or weed control at 100 g/ha [3, 7]
CC(C)(C)C(O)(c1ccc(-c2ccc(OC(F)(F)F)cc2)cc1)c1cncnc1 (centres unmarked) [Compound 1, 2,2-dimethyl-1-(pyrimidin-5-yl)-1-(4′-(trifluoromethoxy)-[1,1′-biphenyl]-4-yl)propan-1-ol]	80 to 100%	80 to 100%	80 to 100%	80 to 100%	80 to 100%
COc1cc(-c2ccc(OC(F)(F)F)cc2C)ccc1C(O)(c1cncnc1)C(C)(C)C (centres unmarked) [Compound 52]	60 to 79%	–	–	–	–
CC(C)(C)C(O)(c1ccc(-c2ccc(SC(F)(F)F)cc2)cc1)c1cccnc1 (centres unmarked) [Compound 55]	80 to 100%	–	–	–	–
CC(C)(C)C(O)(c1cncnc1)c1ccc(-c2ccccc2)cc1F (centres unmarked) [Compound 28]	80 to 100%	–	–	–	–
CC(C)(C)C(O)(c1cncnc1)c1ccc(-c2ccc(C(F)(F)F)nc2)cc1Cl (centres unmarked) [Compound 23]	–	80 to 100%	80 to 100%	80 to 100%	80 to 100%
CC(C)(C)C(O)(c1cncnc1)c1ccc(-c2ccc(C#N)cc2)cc1Cl (centres unmarked) [Compound 9]	80 to 100%	80 to 100%	80 to 100%	80 to 100%	60 to 79%
CC(C)(C)C(O)(c1ccc(-c2ccc(OCC(F)(F)F)cc2)cc1)c1cccnc1 (centres unmarked) [Compound 57]	80 to 100%	–	–	–	–
Cc1cc(-c2ccc(SC(F)(F)F)cc2)ccc1C(O)(c1cncnc1)C(C)(C)C (centres unmarked) [Compound 35]	80 to 100%	–	–	–	–
CC(C)(C)C(O)(c1ccc(-c2ccc(OC(F)(F)F)cc2)cc1)c1cccnc1 (centres unmarked) [Compound 54]	80 to 100%	–	–	–	–
CC(C)(C)C(O)(c1cncnc1)c1ccc(-c2ccc(OC(F)(F)F)cc2)cc1Cl (centres unmarked) [Compound 8]	80 to 100%	80 to 100%	80 to 100%	80 to 100%	80 to 100%
CC(C)(C)C(O)(c1ccc(-c2ccc(C(F)(F)F)cc2)cc1)c1cncnc1 (centres unmarked) [Compound 6]	80 to 100%	–	–	–	–
CC(C)(C#N)c1ccc(-c2ccc(C(O)(c3cccnc3)C(C)(C)C)cc2)cc1 (centres unmarked) [Compound 61]	80 to 100%	–	–	–	–
CC(C)(C)C(O)(c1cncnc1)c1ccc(-c2ccc(OC(F)F)cc2)cc1F (centres unmarked) [Compound 16]	–	80 to 100%	80 to 100%	80 to 100%	80 to 100%
CC(C)(C)C(O)(c1cncnc1)c1ccc(-c2ccc(OC(F)F)cc2)cc1Cl (centres unmarked) [Compound 10]	80 to 100%	80 to 100%	60 to 79%	80 to 100%	80 to 100%
CC(C)(C)C(O)(c1ccc(-c2ccc(OC(F)F)cc2)cc1)c1cccnc1 (centres unmarked) [Compound 56]	80 to 100%	–	–	–	–
CC(C)(C)c1ccc(-c2ccc(C(O)(c3cccnc3)C(C)(C)C)cc2)cc1 (centres unmarked) [Compound 62]	80 to 100%	–	–	–	–
CC(C)(C)C(O)(c1cncnc1)c1ccc(-c2ccc(C(F)(F)F)nc2)cc1F (centres unmarked) [Compound 24]	–	80 to 100%	80 to 100%	80 to 100%	80 to 100%
COc1cc(-c2ccc(SC(F)(F)F)cc2)ccc1C(O)(c1cncnc1)C(C)(C)C (centres unmarked) [Compound 46]	80 to 100%	–	–	–	–
COc1cc(-c2ccc(OC(F)(F)F)cc2F)ccc1C(O)(c1cncnc1)C(C)(C)C (centres unmarked) [Compound 53]	80 to 100%	–	–	–	–
CC(C)(C)C(O)(c1cncnc1)c1ccc(-c2ccc(OC(F)(F)F)cc2)cc1F (centres unmarked) [Compound 15]	–	60 to 79%	80 to 100%	80 to 100%	80 to 100%
CC(C)(C)C(O)(c1ccc(-c2ccc(CC#N)cc2)cc1)c1cccnc1 (centres unmarked) [Compound 59]	80 to 100%	–	–	–	–
CC(C)(C)C(O)(c1ccc(-c2ccc(SC(F)(F)F)cc2)cc1)c1cncnc1 (centres unmarked) [Compound 19]	–	80 to 100%	80 to 100%	80 to 100%	60 to 79%
CC(C)(C)C(O)(c1cncnc1)c1ccc(-c2ccc(C(F)(F)F)cc2F)cc1F (centres unmarked) [Compound 31]	80 to 100%	–	–	–	–
COc1ccc(-c2ccc(C(O)(c3cncnc3)C(C)(C)C)cc2)cc1 (centres unmarked) [Compound 13]	80 to 100%	–	–	–	–
Cc1cc(OC(F)(F)F)ccc1-c1ccc(C(O)(c2cccnc2)C(C)(C)C)cc1 (centres unmarked) [Compound 63]	80 to 100%	–	–	–	–
